Source: patent US20200087248A1, “Fluoroallylamine Derivative And Use Thereof” (SICHUAN KELUN-BIOTECH BIOPHARMACEUTICAL CO., LTD., priority 2017, published 2020)
Structures can show the parent of a compound that is named as a salt.

Experiments:
[1] = molecular target: T1, VAP-1 in abdominal fat of mice (Mus musculus, UniProt O70423); assay: Inhibition of the enzymatic activity of VAP-1 ex-vivo, abdominal fat after oral dosing; assay type: in vivo, BALBc mice; settings: 0.5 mg/kg oral, abdominal fat collected after six hours; for inhibition at 0.5 mg/kg: mouse, read-out: Inhibition rate (%) against the enzymatic activity of VAP-1 (ex-vivo)
T1 construct: abdominal fat was collected and homogenized; from tissue; host or cells: abdominal fat of BALBc mice (homogenate supernatant)
T1 sequence (O70423 1-765): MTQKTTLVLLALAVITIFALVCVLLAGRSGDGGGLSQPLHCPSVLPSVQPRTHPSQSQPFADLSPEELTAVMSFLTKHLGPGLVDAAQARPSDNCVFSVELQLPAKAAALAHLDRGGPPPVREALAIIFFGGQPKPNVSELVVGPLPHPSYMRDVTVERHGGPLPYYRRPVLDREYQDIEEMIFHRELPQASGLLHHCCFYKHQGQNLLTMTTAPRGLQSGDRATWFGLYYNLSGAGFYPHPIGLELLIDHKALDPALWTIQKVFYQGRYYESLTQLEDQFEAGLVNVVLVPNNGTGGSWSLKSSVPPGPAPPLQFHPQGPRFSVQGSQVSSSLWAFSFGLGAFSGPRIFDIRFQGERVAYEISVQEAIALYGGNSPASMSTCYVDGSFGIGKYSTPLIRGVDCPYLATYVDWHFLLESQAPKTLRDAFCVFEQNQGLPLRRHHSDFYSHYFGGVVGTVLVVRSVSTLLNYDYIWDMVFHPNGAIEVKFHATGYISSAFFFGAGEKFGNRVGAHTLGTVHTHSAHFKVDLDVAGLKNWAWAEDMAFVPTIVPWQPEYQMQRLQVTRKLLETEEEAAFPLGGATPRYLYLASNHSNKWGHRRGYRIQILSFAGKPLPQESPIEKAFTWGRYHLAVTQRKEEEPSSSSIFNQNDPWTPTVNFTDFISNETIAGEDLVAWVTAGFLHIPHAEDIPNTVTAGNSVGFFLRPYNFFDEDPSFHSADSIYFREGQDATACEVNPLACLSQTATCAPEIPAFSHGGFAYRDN
Protocol: Inhibition Experiment Against the Enzymatic Activity (ex-vivo)
Tissue homogenate buffer solution (20 mM HEPES, pH 7.2, 1 mM EDTA, 250 mM sucrose, PMSF 0.2 mM)
Reaction buffer solution: 50 mM PBS, pH 7.4
Test kit: Amplex® Red Monoamine Oxidase Assay, Manufacturer: ThermoFisher
BALBc mice were administrated orally with different doses of the test compound, and the vehicle group was used as the control group. After six hours, abdominal fat was collected and homogenized at 1:20 (w/v) with the pre-cooled homogenate buffer solution, and thereafter, the homogenate was centrifuged at 10,000 g and 4° C. or 10 minutes, the supernatant was collected and stored at -80° C. for further use.
A test sample was diluted with the reaction buffer solution and successively added with the inhibition solution A: 1 μM Clorgyline+1 μM pargylin, to inhibit the activities of MAO-A and MAO-B, and the inhibition solution B: 1 μM Clorgyline+1 μM Pargylin+1 μM Mofegiline as the blank control, and after being incubated at room temperature for 20 min, 500 μM benzylamine hydrochloride, 1 U/mL HRP and 200 μM Amplex Red reagent were added to start the reaction. By referring to the method in “Experiment of inhibiting the enzymatic activity of VAP-1”, relative activity of each dose group was calculated, wherein the ratio of the fluorescent signal to reaction time in the linear range is the reaction rate, and the vehicle group is the positive control, thereby to study the inhibition of the compound against the enzymatic activity of VAP-1 in abdominal fat of mice.

CYP2D6 = molecular target: T2, CYP2D6 (Homo sapiens, UniProt P10635); assay: Inhibition of cytochrome P450 isoenzyme CYP2D6 (P450-Glo); assay type: in vitro ADME; settings: estimated from inhibition rates at 10 μM and 1 μM; for IC50: read-out: IC50, inhibition against CYP2D6
T2 construct: purchased Promega
Protocol: (§1) Inhibition Experiment Against Cytochrome P450 Isoenzyme (CYP)
P450-Glo™ CYP2D6 Screening System, manufacturer: Promega
(§2) According to the specification of the test kit, 10 nM CYP1A2, 5 nMCYP2D6, and 1 nM CYP3A4 proteins and corresponding substrates (100 μM, 30 μM, 3 μM) as well as the compound were pre-incubating respectively for 10 min, G6PDH-G6P-NADP regeneration system was added to start the reaction, a test reagent was added later, after 20 min, the chemical luminescent signals were detectted.
(§3) Percent inhibition rate (%)=(1-(signal of each compound concentration group-signal of the blank group)/(signal of the negative control-signal of the blank group))*100.
(§4) According to the inhibition rates of the compound at different concentrations against P450 enzyme, the half inhibition concentration (IC5o) or range was estimated.
(§5) IC50=X*(1-percent inhibition rate (%))/percent inhibition rate (%), wherein, X is the test concentration of the compound.
(§6) According to the above method, the inhibition of the compound at the concentrations 10 μM, and 1 μM, against three CYPs were measured, and the results were shown in the following Tables 10-12: […]

CYP1A2 = molecular target: T3, CYP1A2 (Homo sapiens, UniProt P05177); assay: Inhibition of cytochrome P450 isoenzyme CYP1A2 (P450-Glo); assay type: in vitro ADME; settings: estimated from inhibition rates at 10 μM and 1 μM
T3 construct: purchased Promega
T3 sequence (P05177 1-516): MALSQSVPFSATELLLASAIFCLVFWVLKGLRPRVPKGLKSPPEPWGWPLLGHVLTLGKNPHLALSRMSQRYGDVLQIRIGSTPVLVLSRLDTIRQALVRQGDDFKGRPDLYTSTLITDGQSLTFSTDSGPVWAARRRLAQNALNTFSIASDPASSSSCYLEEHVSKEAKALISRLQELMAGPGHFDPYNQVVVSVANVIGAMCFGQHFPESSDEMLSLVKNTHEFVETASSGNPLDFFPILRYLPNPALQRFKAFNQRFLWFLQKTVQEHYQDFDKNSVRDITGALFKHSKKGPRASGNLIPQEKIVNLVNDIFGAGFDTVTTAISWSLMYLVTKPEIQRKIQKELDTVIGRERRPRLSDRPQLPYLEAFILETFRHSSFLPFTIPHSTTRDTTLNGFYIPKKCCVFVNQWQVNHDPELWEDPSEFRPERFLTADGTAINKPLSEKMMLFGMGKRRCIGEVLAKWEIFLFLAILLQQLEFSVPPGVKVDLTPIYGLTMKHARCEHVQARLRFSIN
Protocol: as §1
P450-Glo™ CYP1A2 Screening System, manufacturer: Promega
as §2, §3, §4, §5, §6

CYP3A4 = molecular target: T4, CYP3A4 (Homo sapiens, UniProt P08684); assay: Inhibition of cytochrome P450 isoenzyme CYP3A4 (P450-Glo); assay type: in vitro ADME; settings: estimated from inhibition rates at 10 μM and 1 μM; for IC50: read-out: IC50, inhibition against CYP3A4
T4 construct: purchased Promega
Protocol: as §1
P450-Glo™ CYP3A4 Screening System, manufacturer: Promega
as §2, §3, §4, §5, §6

T4 sequence (P08684 whole entry): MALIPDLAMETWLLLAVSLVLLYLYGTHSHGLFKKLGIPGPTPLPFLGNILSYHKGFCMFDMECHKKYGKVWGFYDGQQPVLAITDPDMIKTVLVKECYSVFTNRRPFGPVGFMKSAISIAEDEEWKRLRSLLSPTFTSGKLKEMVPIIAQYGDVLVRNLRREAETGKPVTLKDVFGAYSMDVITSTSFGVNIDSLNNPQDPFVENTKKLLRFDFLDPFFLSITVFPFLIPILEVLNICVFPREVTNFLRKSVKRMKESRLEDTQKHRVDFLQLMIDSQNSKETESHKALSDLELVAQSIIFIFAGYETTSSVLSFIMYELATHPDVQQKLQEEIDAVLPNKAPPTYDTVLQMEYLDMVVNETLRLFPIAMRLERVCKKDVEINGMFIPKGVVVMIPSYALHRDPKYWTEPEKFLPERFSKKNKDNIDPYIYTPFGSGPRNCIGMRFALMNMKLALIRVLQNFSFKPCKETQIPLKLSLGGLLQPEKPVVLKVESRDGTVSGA
T2 sequence (P10635 whole entry): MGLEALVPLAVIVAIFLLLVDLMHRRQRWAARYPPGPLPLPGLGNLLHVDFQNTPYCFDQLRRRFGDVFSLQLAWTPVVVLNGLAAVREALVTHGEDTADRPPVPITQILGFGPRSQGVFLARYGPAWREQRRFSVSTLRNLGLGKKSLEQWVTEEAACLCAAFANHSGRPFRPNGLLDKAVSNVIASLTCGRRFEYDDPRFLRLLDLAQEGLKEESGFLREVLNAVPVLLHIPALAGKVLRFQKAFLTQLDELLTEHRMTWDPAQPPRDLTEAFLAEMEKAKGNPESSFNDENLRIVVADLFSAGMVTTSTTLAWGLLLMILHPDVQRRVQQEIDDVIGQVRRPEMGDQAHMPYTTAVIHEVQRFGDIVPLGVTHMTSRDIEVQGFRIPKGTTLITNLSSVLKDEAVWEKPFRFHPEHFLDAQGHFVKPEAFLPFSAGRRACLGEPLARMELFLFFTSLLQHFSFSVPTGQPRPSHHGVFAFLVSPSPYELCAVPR

Molecule	inhibition at 0.5 mg/kg [1] [%]	Inhibition rate (%) against the enzymatic activity of VAP-1 (ex-vivo) [1] [%]	IC50, inhibition against CYP2D6 (CYP2D6)	IC50 (CYP2D6) [µM]	IC50, inhibition against CYP1A2 (CYP1A2)	IC50, inhibition against CYP3A4 (CYP3A4)	IC50 (CYP3A4) [µM]	IC50 (CYP1A2; read-out: IC50, inhibition against CYP1A2) [µM]
NC/C(=C\F)COc1ccc(C(=O)Nc2ccccc2)cc1 [TM1-E, (E)-N-phenyl-4-((2-aminomethyl-3-fluoroallyl)oxy)-benzamide trifluoroacetate]	96.7 ± 2.2	–	–	–	–	–	–	–
NC/C(=C/F)COc1ccc2c(c1)CCNC2=O [TM26-Z, (Z)-6-((2-aminomethyl-3-fluoroallyl)oxy)-3,4-dihydroisoquinolin-1(2H)-one trifluoroacetate]	86.6 ± 5.5	–	–	–	–	–	–	–
NC/C(=C\F)COc1ccc(-c2ncccn2)cc1 [TM39-E, (E)-2-(4-(2-pyrimidyl)phenoxymethyl)-3-fluoroallylamine trifluoroacetate]	93 ± 2.7	–	–	–	–	–	–	–
(E)-6-((2-(methylamino)-3-fluoroallyl)oxy)-2-methyl-3,4-dihydroisoquinolin-1(2H)-one trifluoroacetate [TM66-E]	–	92.3 ± 1.9	do not have significant inhibitions	> 10	do not have significant inhibitions	do not have significant inhibitions	> 10	–
(E)-6-((2-(methylamino)-3-fluoroallyl)oxy)-3,3-dimethyl-3,4-dihydro-isoquinolin-1(2H)-one trifluoroacetate [TM38-E]	–	92.7 ± 3.0	do not have significant inhibitions	> 10	do not have significant inhibitions	do not have significant inhibitions	> 10	6.73 ± 0.39
